For one data set, the system named is MCF-7. Description: MTT cytotoxicity assay, MCF-7. It counts as cell-based, human. The procedure:
(§1) Compounds 1–5 were tested for their cytotoxic activities against different normal and tumor human cell lines, the MTT assay was used to assess cytotoxicity as described previously. Briefly, different tumor cells and normal cells were seeded onto 96-well plates at the appropriate density and allowed to attach overnight. Drugs at various concentrations were added to the culture medium and cells were cultured for another 68 h at 37 °C. MTT (5 mg/mL, 20 μL/well) was then added to the wells for additional 4 h, and the medium was discarded before 150 μL of DMSO was added to dissolve the MTT-formazan crystals. Absorbance was measured at 540 nm, with background subtraction at 670 nm using Model 550 Microplate Reader (Bio-Rad, Hercules, CA, USA). The Bliss method was used to calculate the half maximal (50%) inhibitory concentration (IC50) values. Data represent the mean ± SD of at least three independent experiments.

The subject of the next data set is BT-549. Nature of the data set: MTT cytotoxicity assay, BT-549. It counts as cell-based, human. As to conditions: BT-549, 72 h. Here is the method:
as §1
(In general: Tetrazolium assays rely on reduction of a dye to a coloured formazan, in cell work by metabolically active cells.)

In another data set the test system is RBE. Nature of the data set: MTT cytotoxicity assay, RBE. The class given is cell-based, human. To be noted: 72 h. Here is the method:
as §1

The test system of a further data set is A549. Nature of the data set: MTT cytotoxicity assay, A549. As to conditions: A549, 72 h. It counts as cell-based, human. The procedure:
as §1

The test system of another data set is NCM-460. Description: MTT cytotoxicity assay, NCM-460 (normal cells). To be noted: 72 h. The class given is cell-based. Here is the method:
as §1

A further data set has as its system Huvec. Description: MTT cytotoxicity assay, Huvec (normal cells). It counts as cell-based. To be noted: 72 h, Huvec normal human cell line. The procedure: as §1
Another data set relates to Eimeria tenella. Description: In vitro anticoccidial activity (qPCR). The class given is cell-based. As to conditions: 48 h. The procedure: The number of Eimeria tenella spores and the cells were seeded in a 24-well plate at a ratio of 1:1 and incubated for 6 h, and the medium was discarded and washed with PBS three times. Then, 500 μL of medium was added to each well, followed by the addition of the medium containing the compounds, the blank control group (no spores and no compounds) and positive control group (with spores but no compound) were set, and 10 μM of sulfaclozinium chloride sodium served as a control drug, and three replicates were set up. The culture remained in an incubator containing 5% CO2 at 38 °C for 48 h. After 48 h, the medium was discarded and washed with PBS three times, and the total RNA of each well was extracted and reverse-transcribed into cDNA. qPCR was used to detect the effects of the compounds on the growth and development of E. tenella.
Background: In qPCR the cycle at which signal appears reflects the starting amount.

Data set [1] concerns MCF-7, BT-549, RBE and A549; NCM-46 and Huvec. Description: MTT cytotoxicity, whole panel of cell lines. The class given is cell-based. To be noted: four human cancer and two normal human cell lines. Here is the method:
as §1

For data set [2], the system named is Eimeria tenella infections. More on the design: method as in PMID 7451360. To be noted: animal experiments; cited from earlier work.
Another data set concerns fungi. On the set-up: method as in PMID 19798499. To be noted: cited from earlier work.
Where [3] appears, read: Homo sapiens, MCF7, MCF-7, 72 h.
Where [4] appears, read: NCM460, NCM-460 normal human cell line.

pIC50: −log10 of the molar value.

What is called IC50 is the concentration that gives 50% inhibition. For orientation: pIC50 means −log10 of the IC50, conventionally taken in molar units.

Turning to `COc1cccc2c1C(=O)c1c(O)c3c(c(O)c1C2=O)C[C@@](O)(C(=O)CO)C[C@@H]3O[C@H]1C[C@H](N)[C@H](O)[C@H](C)O1` [Adriamycin, reference compound], the 50% inhibitory concentration (IC50) in the data set with MCF-7 (setting [3]) was 2.96 µM; in the data set with BT-549 (Homo sapiens) it was 6.42 µM; in the data set on RBE (Homo sapiens), 3.62 µM; with A549 (Homo sapiens) it was 4.62 µM; with NCM-460 (setting [4]), 3.24 µM; with Huvec (Homo sapiens, HUVEC), 3.87 µM.

Regarding `N.N.[Cl][Pt][Cl]` [Cisplatin, reference compound], the 50% inhibitory concentration (IC50) was found to be 4.49 µM with MCF-7 (MCF-7, 72 h); 14.2 µM in the data set with BT-549; 4.26 µM in the data set on RBE; 9.34 µM with A549; 19 µM with NCM-460 (NCM-460 normal human cell line); 5.26 µM in the data set with Huvec.

As to `CCOC(=O)c1cc(C)cc(OC)c1C1=C(O)C(=O)c2c(O)cccc2C1=O` [Compound 1, WS-5995 E], the IC50 with MCF-7 (setting [3]) is greater than 50 µM; with BT-549 (Homo sapiens), greater than 50 µM; in the data set on RBE (Homo sapiens), greater than 50 µM; in the data set with A549 (Homo sapiens), greater than 50 µM; in the data set on NCM-460 (setting [4]) it was greater than 50 µM; in the data set with Huvec (Homo sapiens, HUVEC), greater than 50 µM. Also, the “in vitro anti-E. tenella bioactivity” value in the data set with Eimeria tenella is “only exhibited activity at high concentrations”. In data set [1], the “cytotoxic effects against the tested cell lines” value (“cytotoxic effects” below) was “did not exhibit cytotoxic effects”.

As to `COc1cc(C)cc2c(=O)oc3c(c12)C(=O)c1cccc(O)c1C3=O` [Compound 2, WS-5995A], the IC50 is greater than 50 µM in the data set with MCF-7 (setting [3]); greater than 50 µM with BT-549 (Homo sapiens); 21.4 µM with RBE (Homo sapiens); greater than 50 µM in the data set with A549 (Homo sapiens); 40.8 µM with NCM-460 (setting [4]); 31.2 µM in the data set with Huvec (Homo sapiens, HUVEC). For the same compound, the “in vitro anti-E. tenella bioactivity” value in the data set on Eimeria tenella is given as “significant anticoccidial activity”. For the same compound, the pIC50 in the data set on Eimeria tenella (Eimeria tenella, read-out: anti-E. tenella activity IC50) was 5.66. The “protective activity against Eimeria tenella infections” value in data set [2] is listed as “excellent protective activity”.

For the compound `COc1cc(C)cc(C(=O)O)c1C1=CC(=O)c2c(O)cccc2C1=O` [Compound 3, WS-5995B], the IC50 in the data set on MCF-7 (setting [3]) is 19.6 µM; in the data set on BT-549 (Homo sapiens), 5.97 µM; in the data set with RBE (Homo sapiens) it was 16.8 µM; with A549 (Homo sapiens), greater than 50 µM; in the data set with NCM-460 (setting [4]), 18.5 µM; in the data set on Huvec (Homo sapiens, HUVEC), 7.67 µM. Moreover, in data set [2], the “protective activity against Eimeria tenella infections” value is “excellent protective activity”. Moreover, the antifungal activity entry with fungi is “antifungal activity”.

As for `COc1cc(C)cc(C(=O)O)c1C1=C(O)C(=O)c2c(O)cccc2C1=O` [Compound 4, WS-5995C], the IC50 in the data set with MCF-7 (setting [3]) was greater than 50 µM; in the data set on BT-549 (Homo sapiens), greater than 50 µM; in the data set with RBE (Homo sapiens) it was greater than 50 µM; with A549 (Homo sapiens) it was greater than 50 µM; in the data set on NCM-460 (setting [4]) it was greater than 50 µM; with Huvec (Homo sapiens, HUVEC), greater than 50 µM. Besides, the “in vitro anti-E. tenella bioactivity” value in the data set with Eimeria tenella is “not active”. Moreover, the “cytotoxic effects” value in [1] is given as “did not exhibit cytotoxic effects”.

Regarding `COC(=O)c1cc(C)cc(OC)c1C1=C(O)C(=O)c2c(O)cccc2C1=O` [Compound 5, WS-5995D], the 50% inhibitory concentration (IC50) in the data set on MCF-7 (setting [3]) is greater than 50 µM; in the data set on BT-549 (Homo sapiens) it was greater than 50 µM; in the data set on RBE (Homo sapiens), greater than 50 µM; with A549 (Homo sapiens), greater than 50 µM; in the data set on NCM-460 (setting [4]), greater than 50 µM; in the data set on Huvec (Homo sapiens, HUVEC), greater than 50 µM. Also, in the data set with Eimeria tenella, the “in vitro anti-E. tenella bioactivity” value is given as “only exhibited activity at high concentrations”. In addition, the “cytotoxic effects” value in [1] is reported as “did not exhibit cytotoxic effects”.
